# Measured values from patent US12472185B2, “Methods for killing antibiotic tolerant bacteria” (THE PENN STATE RESEARCH FOUNDATION, priority 2020, dated 2025).
# Values joined by “and” are separate entries in the source; they are usually repeats but may differ in a detail not shown here. Identical values can stand only once.
# Tests used:
# [1] = test system: P. aeruginosa PA14 exponential cells; test: Survival of exponentially-growing cells (drop assay); format: cell-based, Pseudomonas aeruginosa; conditions: 100 μM
# Description: (§1) FIG. 2. NPIMA eradicates Escherichia coli, Pseudomonas aeruginosa, and Staphylococcus aureus exponential cells. Survival after 6 hr for (a) E. coli BW25113 with NPIMA and 5-iodoindole at 100 μM, (b) P. aeruginosa PA14 with NPIMA and 5-iodoindole at 100 μM, and (c) S. aureus with NPIMA and 5-iodoindole at 200 μM. Asterisk indicates no viable cells detected. NPIMA, 5-nitro-3-phenyl-1H-indol-2-yl-methylamine hydrochloride.
# (§2) For bacterial viability, cells were washed twice with 0.85% NaCl, resuspended in 1×PBS, and cell counts were determined via the drop assay (Donegan, Matyac, Seidler, & Porteous, 1991). For human cell viability, pre-cultured human cancer HT-29 cells were dispensed in 98 μl in 96-well plates with approximately 5,000 cells/well. NPIMA was added (2 μl) to produce concentrations of 5, 10, 100, and 200 μM. For controls, Triton X-100 (positive control) and DMSO (negative solvent control), were used, and the medium was used for background. Plates were incubated in a humidified incubator (37° C., 5% CO2) for 24 hr. Cell viability was determined via a cell counting kit (CCK-8 Kit, ab228554; Abcam), and cytotoxicity was determined via the lactate dehydrogenase (LDH) assay (LDH Assay Kit, MK401; Takara).
# [2] = test system: S. aureus; test: Lysis assays (total protein and DNA in supernatants); format: cell-based, Staphylococcus aureus; conditions: 100 μM, 6 hr
# Description: (§3) FIG. 5. NPIMA lyses Escherichia coli, Pseudomonas aeruginosa, and Staphylococcus aureus. Total protein (a) and DNA (b) found in supernatants as evidence of cell lysis after treatment of cells at a turbidity of 0.8 at 600 nm with 100 μM NPIMA after 1 hr for E. coli and P. aeruginosa and 6 hr for S. aureus. NPIMA, 5-nitro-3-phenyl-1H-indol-2-yl-methylamine hydrochloride.
# (§4) Exponentially-growing E. coli BW25113 cells (turbidity 0.8 at 600 nm) were washed twice with 0.85% NaCl, resuspended in 1 ml of 1×PBS, and NPIMA (100 μM) was added for 1 hr for E. coli and P. aeruginosa and 6 hr for S. aureus with shaking at 250 rpm (0.1% DMSO was used as the negative control). Cell supernatants were collected after centrifuging at 6,500 g (4° C. for 15 min), and total protein was measured by the Bicinchoninic Acid (BCA) protein assay Kit (Prod #23227; Pierce). DNA in the supernatant (199 μl) was detected by adding 1 μl of Picogreen (P7589; Invitrogen) and incubating for 5 min at room temperature in the dark room. The fluorescence signal was read by a Tecan microplate reader (Infinite M200PRO) with 480 nm excitation and 520 nm emission by utilizing a calibration curved made with plasmid pEX18Ap at 0, 0.004, 0.008, 0.016, 0.063, 0.125, 0.25, and 0.5 ng/μl.
# [3] = test system: E. coli BW25113 exponential cells; test: Survival of exponentially-growing cells (drop assay); format: cell-based, Escherichia coli
# Description: as §1
# FIG. 8. NPIMA structure function relationships. Exponential cells of Escherichia coli BW25113 were treated with (a) 2-(aminomethyl) indole, and (b) 2-methyl-5-nitro-3-phenyl-1H-indole for 6 hr. NPIMA, 5-nitro-3-phenyl-1Hindol-2-yl-methylamine hydrochloride.
# as §2
# [4] = test system: E. coli BW25113; test: Lysis assays (total protein and DNA in supernatants); format: cell-based, Escherichia coli; conditions: 100 μM, 1 hr
# Description: as §3, §4
# [5] = test system: P. aeruginosa + S. aureus; test: In vitro Lubbock chronic wound pathogenic biofilm model; format: cell-based, Pseudomonas aeruginosa and Staphylococcus aureus; conditions: 0.5 mM, 6 hr
# Description: FIG. 10. NPIMA kills S. aureus and P. aeruginosa in a wound model. Survival of total cells (P. aeruginosa+S. aureus) in the wound model after treatment with NPIMA for 6 h. The left bar is the solvent (DMSO) negative control.
# Overnight cultures of S. aureus and P. aeruginosa PA14 were diluted in wound-like media (45% Bolton broth, 50% bovine plasma, and 5% laked horse blood; Sun, Dowd, Smith, Rhoads, & Wolcott, 2008) to a turbidity of 0.5 at 600 nm in 1 ml. Each culture (1%) was used to inoculate fresh 5 ml of wound-like media. The combined culture (200 μl/well) was placed into 96-well plates and incubated at 37° C. with shaking for 24 hr. The non-gel liquid was removed, then the gel was washed once with PBS. NPIMA (0.1 and 0.5 mM) and DMSO were then added (200 μl/well) to the plates, which were incubated for another 6 hr with shaking. By triturating, the gel with cells was removed and added to 0.8 ml of PBS, and the cell viability was measured by spreading 100 μl of diluted culture on LB plates.
# [6] = test system: E. coli K-12 BW25113; test: Minimum inhibitory concentration (MIC); format: cell-based; conditions: Escherichia coli, LB, 24 hr
# Description: (§5) The bacteria used in this study are E. coli K-12 BW25113 (Baba et al., 2006), S. aureus ATCC29213, and P. aeruginosa PA14 (Liberati et al., 2006). Lysogeny broth (LB; Bertani, 1951) was used at 37° C. for culturing the bacteria. 2-(Aminomethyl)-indole was obtained from Sigma-Aldrich (catalog number 563838), and 2-methyl-5-nitro-3-phenyl-1H-indole was obtained from ChemBridge (San Diego, CA).
# (§6) To determine the MICs of NPIMA and 5-iodoindole for E. coli K-12, S. aureus, and P. aeruginosa PA14, cells were inoculated into LB at varying concentrations and grown for 24 hr. The MIC was determined as the lowest concentration that prevented an increase in growth as evidenced by a lack of change of turbidity.
# [7] = test system: P. aeruginosa PA14; test: Minimum inhibitory concentration (MIC); format: cell-based; conditions: Pseudomonas aeruginosa, LB, 24 hr
# Description: as §5, §6
# [8] = test system: S. aureus ATCC29213; test: Minimum inhibitory concentration (MIC); format: cell-based; conditions: Staphylococcus aureus, LB, 24 hr
# Description: as §5, §6
# [9] = test system: P. aeruginosa PA14 exponentially-growing cells; test: Killing at one MIC in PBS, NPIMA compared with cisplatin; format: cell-based, Pseudomonas aeruginosa; conditions: 3 hr
# Source text: FIG. 7. NPIMA compared width cisplatin for killing Pseudomonas aeruginosa, Escherichia coli, and Staphylococcus aureus. Survival of exponentially-growing cells of P. aeruginosa PA14 (a), E. coli (b), and S. aureus (c) treated with one MIC of NPIMA (♦) and cisplatin (●) for 3 hr in PBS. DMSO (▴) and NaClO4 (*) were used as a negative controls. MIC, minimum inhibitory concentration; NPIMA, 5-nitro-3-phenyl-1H-indol-2-yl-methylamine hydrochloride.
# as §2
structure (smiles),measurement,setting,value
"Cl.NCc1[nH]c2ccc([N+](=O)[O-])cc2c1-c1ccccc1 [NPIMA, [(5-nitro-3-phenyl-1H-indol-2-yl)methyl]amine hydrochloride]",time to eradicate exponentially-growing P. aeruginosa PA14 cells,[1],6 h
same,DNA released compared with DMSO alone,[2],1.82±0.05 fold
same,total protein released compared with DMSO alone,[2],2.9±0.1 fold
same,time to eradicate exponentially-growing E. coli,[3]; 100 μM (1 MIC),≤ 3 h
same,killing of exponential E. coli cells,"[3]; 100 μM, 6 hr",eradicated
same,increase in DNA in the supernatants compared to DMSO alone,[4],3.8±0.8
same,increase in total cell protein in supernatants compared to DMSO alone,[4],10±2
same,reduction of total viable number of cells compared to DMSO,[5],10 fold
same,MIC,[6],100 µM and 15 µg/mL
same,MIC,[7],250 µM
same,MIC,[8],100 µM
same,effectiveness relative to cisplatin,[9],less effective
